Key:
focal cerebral ischemia = conditions: adult rat; UA given 2 hours before occlusion of the middle cerebral artery or 1 hour after reperfusion; cited from earlier work
[1] = system: mixed cultures of neurons/glia; assay: Lactate dehydrogenase (LDH) release assay of cell death after oxygen and glucose deprivation (OGD); assay type: cell-based, rat; conditions: 100 μM, added 60 min before, during and after 90 min OGD; read 3 hours 30 minutes after OGD; FIG. 1
Description: Mixed cultures of neurons/glia of 18-day rat fetal embryos Sprague-Dawley were prepared as described in Petegnief, V. Saura, J. De Gregorio-Rocasolano, N., and Paul, S. M. (2001) Neuroscience 104, 223-234. The cells were suspended in minimum essential medium (MEM) supplemented by 10% fetal bovine serum and 100 μg/ml gentamicin and placed on 24-well plates previously covered with poly-L-lysine (5 μg/ml) (Nunc, Roskilde, Denmark) with a density of 0.6×10^6 cells/well and cultured at 37° C. in an incubator with 95% atmospheric air/5% CO2. The in vitro medium was partially changed on days 4, 7 and 10 (DIV) with MEM supplemented with B27. The cultures were used in 11/13 DIV. 11.9 mM uric acid was prepared in 1.35 mM lithium carbonate and 5% mannitol. […]
For the lactate dehydrogenase activity assay, cell death was estimated 3 hours 30 minutes after OGD and next lactate dehydrogenase (LDH) activity was measured released in the medium according to a modification of the method of (Wroblewski and LaDue, […]). The reduction of absorbance in 0.75 NADH to 340 nm was followed by a phosphate buffer ([…], pH 7.4) in presence of 4.2 mM pyruvic acid as substrate.

O=c1[nH]c(=O)c2[nH]c(=O)[nH]c2[nH]1 [uric acid]
resulting cerebral infarction (focal cerebral ischemia): significantly reduces the resulting cerebral infarction
cell viability in ischemic conditions (LDH activity released in the medium) [1]: did not improve the cell viability

Source: US20120108532A1, “PHARMACEUTICAL COMPOSITION FOR NEUROPROTECTIVE TREATMENT IN PATIENTS WITH ICTUS COMPRISING CITICOLINE AND URIC ACID” (HOSPITAL CLINIC PROVINCIAL DE BARCELONA, priority 2009, published 2012)
